Data taken from ChEMBL document CHEMBL5214910, “Rational Design of Dipicolylamine-Containing Carbazole Amphiphiles Combined with Zn2+ as Potent Broad-Spectrum Antibacterial Agents with a Membrane-Disruptive Mechanism” (J Med Chem, 2021).
Active and inactive are the calls of the source. The calls are words filed in the database; no cut-off is given here.

How the values were obtained:
Staphylococcus aureus [1] = experiment: Antibacterial activity against Methicillin-resistant Staphylococcus aureus N315 assessed as inhibition of bacterial growth by measuring salt resistance incubated for 24 hrs in the presence of 12.5 ug/ml Zn2+ and 175.5 ug/ml K+ by Muller hinton broth based dilution assay; assay type: functional
Cell membrane [2] = experiment: Disruption of cell membrane integrity in Escherichia coli ATCC 25922 assessed as increase in red fluorescence at 8 times of MIC measured for 2 hrs in the presence of 12.5 ug/ml Zn2+ by PI and SYTO staining based assay; assay type: subcellular
Cell membrane [3] = experiment: Disruption of cell membrane integrity in Escherichia coli ATCC 25922 assessed as increase in fluorescence intensity at 2 times to 8 times of MIC measured for 1 hrs in the presence of 12.5 ug/ml Zn2+ by SYTOX green dye based assay; assay type: subcellular; conditions: DDE = dose-dependent effect
Lipopolysaccharide (LPS) [4] = experiment: Displacement of BODIPY-TR-cadaverin from Pseudomonas aeruginosa Lipopolysaccharide at 8 times of MIC incubated for 30 mins by fluorescence based microplate reader analysis relative to control
Pseudomonas aeruginosa [5] = experiment: Antibacterial activity Pseudomonas aeruginosa ATCC 9027 assessed as inhibition of bacterial growth incubated for 24 hrs by Muller hinton broth based dilution assay; assay type: functional
Pseudomonas aeruginosa [6] = experiment: Antibacterial activity Pseudomonas aeruginosa ATCC 9027 assessed as inhibition of bacterial growth incubated for 24 hrs in the presence of 3.125 ug/mL Zn2+ by Muller hinton broth based dilution assay; assay type: functional
Escherichia coli [7] = experiment: Antibacterial activity against Escherichia coli ATCC 25922 assessed as log reduction in bacterial count at 4 times of MIC incubated for 1 hrs in the presence of 12.5 ug/ml Zn2+ by Muller hinton agar based time kill assay; assay type: functional
Cell membrane [8] = experiment: Induction of outer membrane permeabilization in Escherichia coli ATCC 25922 assessed as increase in fluorescence intensity at 2 times to 8 times MIC measured for 1 hrs in the presence of 12.5 ug/ml Zn2+ by NPN uptake assay; assay type: subcellular; conditions: DDE = dose-dependent effect
Staphylococcus aureus [9] = experiment: Antibacterial activity against Staphylococcus aureus ATCC 29213 assessed as inhibition of bacterial growth by measuring salt resistance incubated for 24 hrs in the presence of 12.5 ug/ml Zn2+ and 24.3 ug/ml Mg2+ by Muller hinton broth based dilution assay; assay type: functional
Staphylococcus aureus [10] = experiment: Antibacterial activity against Staphylococcus aureus ATCC 29213 assessed as inhibition of bacterial growth incubated for 24 hrs in the presence of 3.125 ug/mL Zn2+ by Muller hinton broth based dilution assay; assay type: functional
Staphylococcus aureus [11] = experiment: Antibacterial activity against Methicillin-resistant Staphylococcus aureus NCTC10442 assessed as inhibition of bacterial growth by measuring salt resistance incubated for 24 hrs in the presence of 12.5 ug/ml Zn2+ and 24.3 ug/ml Mg2+ by Muller hinton broth based dilution assay; assay type: functional
Acinetobacter baumannii [12] = experiment: Antibacterial activity against Acinetobacter baumannii ATCC 17978 assessed as inhibition of bacterial growth by measuring salt resistance incubated for 24 hrs in the presence of 12.5 ug/ml Zn2+ and 100 ug/ml […] by Muller hinton broth based dilution assay; assay type: functional
Staphylococcus aureus [13] = experiment: Antibacterial activity against Methicillin-resistant Staphylococcus aureus NCTC10442 assessed as inhibition of bacterial growth incubated for 24 hrs in the presence of 12.5 ug/mL Zn2+ by Muller hinton broth based dilution assay; assay type: functional
Lipopolysaccharide (LPS) [14] = experiment: Displacement of BODIPY-TR-cadaverin from Pseudomonas aeruginosa Lipopolysaccharide at 8 times of MIC incubated for 30 mins in the presence of 12.5 ug/ml Zn2+ by fluorescence based microplate reader analysis relative to control
Pseudomonas aeruginosa [15] = experiment: Antibacterial activity Pseudomonas aeruginosa ATCC 9027 assessed as inhibition of bacterial growth incubated for 24 hrs in the presence of […] ug/mL Zn2+ by Muller hinton broth based dilution assay; assay type: functional
Cell membrane [16] = experiment: Disruption of cell membrane integrity in Staphylococcus aureus ATCC 29213 assessed as increase in fluorescence intensity at 2 times to 8 times of MIC measured for 1 hrs in the presence of 12.5 ug/ml Zn2+ by SYTOX green dye based assay; assay type: subcellular; conditions: DDE = dose-dependent effect
Escherichia coli [17] = experiment: Antibacterial activity Escherichia coli ATCC 25922 assessed as inhibition of bacterial growth incubated for 24 hrs in the presence of 6.25 ug/mL Zn2+ by Muller hinton broth based dilution assay; assay type: functional
Staphylococcus aureus [18] = experiment: Antibacterial activity against Methicillin-resistant Staphylococcus aureus N315 assessed as inhibition of bacterial growth by measuring salt resistance incubated for 24 hrs in the presence of 12.5 ug/ml Zn2+ and 24.3 ug/ml Mg2+ by Muller hinton broth based dilution assay; assay type: functional
Pseudomonas aeruginosa [19] = experiment: Antibacterial activity Pseudomonas aeruginosa ATCC 9027 assessed as inhibition of bacterial growth incubated for 24 hrs in the presence of 0.39 ug/mL Zn2+ by Muller hinton broth based dilution assay; assay type: functional
Lipopolysaccharide (LPS) [20] = experiment: Displacement of BODIPY-TR-cadaverin from Pseudomonas aeruginosa Lipopolysaccharide at 16 times of MIC incubated for 30 mins by fluorescence based microplate reader analysis relative to control
Acinetobacter baumannii [21] = experiment: Antibacterial activity against Acinetobacter baumannii ATCC 17978 assessed as inhibition of bacterial growth by measuring salt resistance incubated for 24 hrs in the presence of 12.5 ug/ml Zn2+ and 3220 ug/ml Na+ by Muller hinton broth based dilution assay; assay type: functional
Staphylococcus aureus [22] = experiment: Antibacterial activity against Methicillin-resistant Staphylococcus aureus NCTC10442 assessed as inhibition of bacterial growth incubated for 24 hrs in the presence of 50 ug/mL Zn2+ by Muller hinton broth based dilution assay; assay type: functional
Lipopolysaccharide (LPS) [23] = experiment: Displacement of BODIPY-TR-cadaverin from Pseudomonas aeruginosa Lipopolysaccharide at 1 times of MIC incubated for 30 mins by fluorescence based microplate reader analysis relative to control
Cell membrane [24] = experiment: Induction of cell membrane […] in Escherichia coli ATCC 25922 assessed as increase in fluorescence intensity at 2 times to 8 times of MIC measured for 1 hrs in the presence of 12.5 ug/ml Zn2+ by […] dye based assay; assay type: subcellular
Staphylococcus aureus [25] = experiment: Antibacterial activity against Staphylococcus aureus ATCC 29213 assessed as inhibition of bacterial growth incubated for 24 hrs in the presence of 0.78 ug/mL Zn2+ by Muller hinton broth based dilution assay; assay type: functional
[26] = Hemolytic activity in rabbit RBC incubated for 1 hrs in the presence of 12.5 ug/mL Zn2+ by fluorescence based microplate reader assay; assay type: toxicity, cell-based, Oryctolagus cuniculus, Erythrocyte; conditions: rabbit red blood cells (erythrocytes)
Staphylococcus aureus [27] = experiment: Antibacterial activity against Staphylococcus aureus ATCC 29213 assessed as inhibition of bacterial growth incubated for 24 hrs in the presence of 12.5 ug/mL Zn2+ by Muller hinton broth based dilution assay; assay type: functional
Staphylococcus aureus [28] = experiment: Antibacterial activity against Staphylococcus aureus ATCC 29213 assessed as inhibition of bacterial growth incubated for 24 hrs in the presence of 6.25 ug/mL Zn2+ by Muller hinton broth based dilution assay; assay type: functional
Escherichia coli [29] = experiment: Antibacterial activity Escherichia coli ATCC 25922 assessed as inhibition of bacterial growth incubated for 24 hrs in the presence of […] ug/mL Zn2+ by Muller hinton broth based dilution assay; assay type: functional
[30] = Hemolytic activity in rabbit RBC incubated for 1 hrs by fluorescence based microplate reader assay; assay type: toxicity, cell-based, Oryctolagus cuniculus, Erythrocyte; conditions: rabbit red blood cells (erythrocytes)

Compound: CC(C)=CCn1c2ccccc2c2c(OCC(O)CN(Cc3ccccn3)Cc3ccccn3)cccc21 (stereo not given)
- MIC (Staphylococcus aureus [1]): 0.78 mg/L
- Activity (Cell membrane [2]): Active
- Activity (Cell membrane [3]): Dde
- Activity (Lipopolysaccharide (LPS) [4]): 1.32%
- MIC (Pseudomonas aeruginosa [5]): > 50 mg/L
- MIC (Pseudomonas aeruginosa [6]): 12.5 mg/L
- log(activity) (Escherichia coli [7]): 2.91
- Activity (Cell membrane [8]): Dde
- MIC (Staphylococcus aureus [9]): 1.56 mg/L
- MIC (Staphylococcus aureus [10]): 3.12 mg/L
- MIC (Staphylococcus aureus [11]): 1.56 mg/L
- MIC (Acinetobacter baumannii [12]): 3.12 mg/L
- MIC (Staphylococcus aureus [13]): 1.56 mg/L
- Activity (Lipopolysaccharide (LPS) [14]): 83.4%
- MIC (Pseudomonas aeruginosa [15]): 50 mg/L
- Activity (Cell membrane [16]): Dde
- MIC (Escherichia coli [17]): 1.56 mg/L
- MIC (Staphylococcus aureus [18]): 1.56 mg/L
- MIC (Pseudomonas aeruginosa [19]): > 50 mg/L
- Activity (Lipopolysaccharide (LPS) [20]): 2.47%
- MIC (Acinetobacter baumannii [21]): 0.78 mg/L
- MIC (Staphylococcus aureus [22]): 0.78 mg/L
- Activity (Lipopolysaccharide (LPS) [23]): -0.28%
- Activity (Cell membrane [24]): Active
- MIC (Staphylococcus aureus [25]): 3.12 mg/L
- HC50 at 1 h [26]: > 200 µg/mL
- MIC (Staphylococcus aureus [27]): 1.56 mg/L
- MIC (Staphylococcus aureus [28]): 1.56 mg/L
- MIC (Escherichia coli [29]): 6.25 mg/L
- HC50 at 1 h [30]: > 200 µg/mL
